PubChem BioAssay (NCI)
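Tested at 5 concentrations; 48 h exposure; 96-well plates; endpoints linearly interpolated, else capped at highest concentration. TGI: total growth inhibition.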

Columns and labels:
Experiment in all cases: inhibition of tumour cell growth, NCI panel, 48 h
[1] = tested on: 786-0 renal
[2] = tested on: ACHN renal
[3] = tested on: HS 578T breast
[4] = tested on: HT29 colon
[5] = tested on: K-562 leukemia
[6] = tested on: MDA-N
[7] = tested on: NCI-H460 lung
[8] = tested on: NCI-H522 lung
[9] = tested on: OVCAR-8 ovarian
[10] = tested on: SN12C renal
[11] = tested on: T-47D breast
[12] = tested on: UACC-62 melanoma

Row | Structure (SMILES) | TGI [1] [µM] | TGI [2] [µM] | TGI [3] [µM] | TGI [4] [µM] | TGI [5] [µM] | TGI [6] [µM] | TGI [7] [µM] | TGI [8] [µM] | TGI [9] [µM] | TGI [10] [µM] | TGI [11] [µM] | TGI [12] [µM]
1 | COc1cc2c(cc1C)NC(=O)/C2=C/c1c(Cl)[nH]c2cc(C)c(OC)cc12 | 18.2 | 18.4 | 46 | 17.6 | > 41.6 | 8.93 | 5.71 | 19.8 | 24.1 | 8.18 | 25.8 | 19.5
2 | O=[N+]([O-])c1cc2n[nH]nc2c2nonc12 | > 100 | 67.6 | 58.8 | > 100 | > 100 | 80.5 | > 100 | 32.6 | 58.1 | > 100 | > 100 | 
3 | O=c1oc2ncccc2n1Cc1ccc([N+](=O)[O-])cc1 | > 100 | > 100 | > 100 | > 100 | > 100 | > 100 | > 100 | > 100 | > 100 | > 100 | > 100 | > 100
4 | Cc1nn2c(N)cc(=O)nc2nc1/C=C/c1ccc(N(C)C)cc1 | > 100 | > 100 | > 100 | > 100 | > 100 | > 100 | > 100 | 7.62 | > 100 | > 100 | > 100 | > 100
5 | CC(C)(C)OC(=O)N1C(C2=COc3ccccc3O2)=COc2ccccc21 | > 100 | 75.3 | > 100 | > 100 | 57 | > 100 | > 100 | 40.8 | > 100 | > 100 | 50.4 | 32.6
6 | CS(C)(=O)=N/C=C\C(=O)C(Cl)(Cl)Cl | > 100 | > 100 | > 100 | > 100 | > 100 | > 100 | > 100 | > 100 | > 100 | > 100 | > 100 | > 100
7 | CCOC(=O)/C(C(=S)NC)=C(/N)N1CCCC1 | > 100 | > 100 | > 100 | > 100 | > 100 | > 100 | > 100 | > 100 | > 100 | > 100 | > 100 | > 100
8 | O=C(N/N=C(/COc1cccc(Cl)c1)N=Cc1ccncc1)c1ccncc1 | > 100 | > 100 | > 100 | > 100 | > 100 | > 100 | > 100 | > 100 | > 100 | > 100 | > 100 | > 100
9 | OC(c1cc(C(O)(C(F)(F)F)C(F)(F)F)ncn1)(C(F)(F)F)C(F)(F)F | > 10 | > 10 | > 10 | > 10 | > 10 | > 10 | > 10 | > 10 | > 10 | > 10 | > 10 | > 10
10 | CC1=CC(c2ccccc2)OP1(=O)c1ccccc1 (stereo not given) | > 100 | > 100 | > 100 | > 100 | > 100 | > 100 | > 100 | > 100 | > 100 | > 100 | > 100 | > 100
11 | CCCCc1ccc(Nc2nc3c(ncn3C3OC(COC(C)=O)C(OC(C)=O)C3OC(C)=O)c(=O)[nH]2)cc1 (stereo not given) | 32 | > 100 | 56 | 37.5 | 38.5 | 35.4 | 32.7 | 32.8 | 34.7 | 42.3 | 30 | 34.7
12 | COC(=O)C12CCC(C(=O)OC)(Cc3c(c4ccccc4n3S(=O)(=O)c3ccccc3)C1)C2=O (stereo not given) | > 69.6 | > 100 | > 84.7 | > 81 | > 100 | > 100 | > 100 | 97.1 | > 100 | > 100 | > 100 | > 100
13 | COCCc1c(C)c(C#N)c2n(C)c3ccccc3n2c1=O | > 10 | > 10 | > 10 | > 10 | > 10 | > 10 | > 10 | > 10 | > 10 | > 10 | > 10 | > 10
14 | CCN(CC)CC(O)c1ccc2ccc3ccccc3c2c1 (stereo not given) | 25.6 | 27.3 | 41.9 | 25.2 | 32.5 | 31 | 32.7 | 31.9 | 32 | 32.1 | 37.7 | 29.1
15 | CCN(CC)CCN1c2ccccc2Sc2ccc3ccccc3c21 | 23.9 | 29.2 | 32.6 | 12.3 | 15.7 | 25.3 | 6.42 | 27.9 | 26.8 | 24.4 | 19.1 | 22
16 | COc1cc(/C=C2\C(=O)N(c3cccc(Cl)c3)C(c3ccccc3)S2(=O)=O)cc(OC)c1OC (stereo not given) | > 100 | > 100 | > 100 | > 100 | > 100 | 46.6 | > 100 | 55.8 | > 100 | > 100 | > 100 | > 100
17 | CCCCC1Cc2cc(O)ccc2-c2n1c1cc(O)ccc1[n+]2C (stereo not given) (tested in a mixture with another compound) | > 100 | 98.7 | > 51.4 | > 100 | > 100 | > 100 | > 100 | > 47.4 | > 100 | > 100 | > 100 | > 81.5
18 | C/C(Cl)=N\OC(=O)Nc1ccc([N+](=O)[O-])cc1 | 18.4 | 9.2 | 72.5 | 38.7 | 4.22 | 25.1 | 38.8 | 3.75 | 32.2 | 35.1 | 36.8 | 48.6
19 | NS(=O)(=O)c1nnc(NC(=O)CCC(=O)O)s1 | > 100 | > 100 | > 100 | > 100 | > 100 | > 100 | > 100 | > 100 | > 100 | > 100 | > 100 | > 100

Row | Structure (SMILES) | TGI [1] [µM] | TGI [2] [µM] | TGI [3] [µM] | TGI [4] [µM] | TGI [5] [µM] | TGI [6] [µM] | TGI [7] [µM] | TGI [8] [µM] | TGI [9] [µM] | TGI [10] [µM] | TGI [11] [µM] | TGI [12] [µM]
20 | CCN(CC)CCn1ncc2ccc3c(c(=O)c4cccnc4n3CCN(CC)CC)c21 | 4.6 | > 10 | > 6 | 3.13 | 3.33 | 2.15 | 2.45 | 2.35 | 3.63 | 8.15 | > 9.48 | 5.15
21 | CCCCCCCCCc1cc(O)c(O)cc1CCCCCCCCC | > 10 | > 10 | > 10 | > 10 | > 10 | > 10 | > 10 | > 10 | > 10 | > 10 | > 10 | > 10
22 | NS(=O)(=O)c1ccc(NNC(=O)c2cccc3c(=O)c4ccccc4[nH]c23)cc1 | > 100 | > 100 | > 100 | > 100 | > 100 | > 100 | > 100 | > 100 | > 100 | > 100 | > 100 | > 100
23 | Clc1cc2nc(C3CCCO3)[nH]c2cc1Cl (stereo not given) | > 100 | > 100 | > 100 | > 100 | > 100 | 58 |  | 66 | > 100 | > 100 | > 100 | > 100
24 | COC(=O)N1CC[C@@H]2CCC=C(c3cccc4c3OCO4)[C@@H]21 | > 100 | > 100 | > 100 | > 100 | > 100 | > 100 | > 100 | > 100 | > 100 | > 100 | > 100 | > 100
25 | COc1ccc2c(c1)/C(=C(\C(Cl)=C(Cl)Cl)[N+](=O)[O-])N2 | > 100 | > 100 | > 100 | > 100 | > 100 | > 100 | > 100 | 87 | > 100 | > 100 | > 100 | > 100
26 | CCOC(=O)c1ccc(N=C2SC(=S)N(c3ccc(F)cc3)C2=Nc2ccc(C(=O)OCC)cc2)cc1 | 31.6 | 29.4 | 91.7 | 51.6 | 47.3 | 35.4 | > 100 | 19.1 | 22.3 | 33.6 | 22.7 | 21.5
27 | CCOC(=O)C(SCCO)C(C(=O)OCC)n1ccc(N)nc1=O (stereo not given) | > 100 | > 100 | > 100 | > 100 | > 100 | > 100 | > 100 | > 100 | > 100 | > 100 | > 100 | > 100
28 | Cc1c2c(c(C)c3c[n+](C)ccc13)Oc1ccccc1O2 | > 100 | > 100 | 12.9 | 68.2 | 35.4 | 53.5 | 16.4 | 17.1 | > 54 | > 42.4 | 25.7 | 27.4
29 | CCOC(=O)C(Cc1ccc2c(c1)CCC2)(Cc1ccc2c(c1)CCC2)C(=O)OCC | > 100 | > 100 | > 100 | > 100 | > 100 | > 100 | > 100 | > 100 | > 100 |  | > 100 | 
30 | COc1ccc(C2CCc3nc4nc(N)nc(N)c4cc3C2)cc1 (stereo not given) | 17 | 22 | > 100 | 94.3 | > 100 | > 100 | > 100 | > 100 | 22.5 | 59.5 | 44.7 | > 100
31 | O=C(CSc1nc2ccc(I)cc2c(=O)n1Cc1ccccc1)N/N=C/c1ccccc1 | 32.6 | > 100 | 9.09 | > 100 | > 100 | > 100 | > 100 | 40 | 60.5 | > 100 | 79.9 | > 100
32 | C/C(CC(O)(C(F)(F)F)C(F)(F)F)=N\N | > 10 | > 10 | > 10 | > 10 | > 10 | > 10 | > 10 | > 10 | > 10 | > 10 | > 10 | > 10
33 | Oc1c(C(O)(c2ccccc2)c2ccc3ccccc3c2O)ccc2ccccc12 | > 69 | 23.3 | 27.8 | 33 | 15.7 | 28.5 | 22.3 | 16.5 | 29.7 | 23.1 | 32.5 | 22.8
34 | COc1cc(N=C(N)N=C(N)N)c2ncccc2c1 | > 100 | > 100 | > 100 | > 100 |  | > 100 | > 100 | > 100 | > 100 | > 100 | > 100 | > 100
35 | O=C(CC(=O)c1ccncc1)c1ccccc1 | > 100 | > 100 | > 100 | > 100 | > 100 | > 100 | > 100 | > 100 | > 100 | > 62.5 | > 100 | > 100
36 | CCCCCCc1nn2c(-c3ccc(C)cc3)nnc2s1 | > 100 | > 100 | > 100 | > 100 | > 100 | > 100 | > 100 | > 100 | > 100 | > 100 | > 100 | > 100
37 | CC(C)OP(=O)(OC(C)C)C(C(F)(F)F)C(F)(F)F | > 100 | > 100 | > 100 | > 100 | > 100 | > 100 |  | > 100 | > 100 | > 100 | > 100 | > 100
38 | CN1CN(c2ccccc2)C2(CCNCC2)C1=O | > 100 | > 100 | > 100 | > 100 | > 100 | > 100 | > 100 | > 100 | > 100 | > 100 | > 100 | > 100
